In test [1] the test system is NCI-H460, human non-small cell lung cancer cells. As to the kind of experiment: Cell-MTS cellular proliferation assay, NCI-H460. The class given is cell-based. The conditions noted are these: 168 hr incubation. The method, then: (§1) A colorimetric cellular proliferation assay (Cell-MTS assay) was performed to assess the ability of the heterocyclic derivative […] inhibitors disclosed herein to effect the proliferation of established cancer cell lines.
(§2) The Cell-MTS assay is a 7-day plate-based colorimetric assay which quantifies the amount of newly generated NADH in the presence or absence of test compound. The NADH level is used for the quantification of cancer cell proliferation.
(§3) Established cancer cell lines with a variety of driving mutations were obtained from American Type Culture Collection (ATCC) and routinely passaged according to ATCC protocols. For routine assay, these cells were seeded at densities which enabled ˜90% confluence after 7 days of culture. Raji, human Burkitts lymphoma cells, (cMYC) were seeded at 15,000 cells per 96-well. HL-60, human proleukemia cells, (NRAS, p16, p53, c-Myc amplified) were seeded at 5,000 cells per 96-well. NCI-H460, human non-small cell lung cancer cells. (KRAS, PIK3CA, STLK11, p16) were seeded at 3,000 cells per 96-well. 24 hr after plating, cells received an 11 point dilution of test compound with final concentration ranges from 100 µM to 2.0 nM. Cells were incubated in the presence of compound for 168 hr at 37° C., and 5% CO2. At the end of this incubation period, 80 µL of media is removed and 20 µL of CellTiter 96® AQueous Non-Radioactive Cell Proliferation Assay solution (Promega) was added. The cells were incubated until the OD490 was >0.6. IC50 values were calculated using the IDBS XLfit software package and include background subtracted OD490 values and normalization to DMSO controls. Cellular proliferation IC50 values were uploaded and archived using the Chem Biography Platform. Table 3 provides the results of the in vitro enzyme inhibition assay experiments and the in vitro cell-based assay experiments performed with the compounds disclosed herein: […]
(Formazan colour is commonly taken as a measure of viable cells.)

The target of the next test is BRD4(BD1) (Homo sapiens (Human), UniProt O60885). Kind of test: In vitro enzyme inhibition assay (BRD4 AlphaScreen, H4-tetraacetyl peptide). The class given is binding. The conditions noted are these: BRD4(BD1) 2 nM, peptide 15 nM. On the procedure:
Determination of the IC50 for the heterocyclic derivative BRD4 inhibitors disclosed herein was performed as follows. His-tagged […] was cloned, expressed and purified to homogeneity. Filipakopoulos et al., 468 Nature 1067 (2010). BRD4 binding and inhibition was assessed by monitoring the interaction of biotinylated H4-tetraacetyl peptide (AnaSpec, H4K5/8/12/16(Ac), biotin—labeled) with the target using the AlphaScreen technology (Life Technologies). In a 384-well ProxiPlate BRD4(BD1) (2 nM final) was combined with peptide (15 nM final) in 50 mM HEPES (pH 7.3), 10 mM NaCl, 0.25 mM TCEP, 0.1% (w/v) BSA, and 0.005% (w/v) Brij-35 either in the presence of DMSO (final 0.4% DMSO) or compound dilution series in DMSO. After 20 min incubation at RT, Alpha streptavidin donor beads and Nickel Chelate acceptor beads were added to a final concentration of 5 μg/mL. After 2 hr of equilibration, plates were read on an Envision instrument and the IC50 was calculated using a four parameter non-linear curve fit.
The ability of the compounds disclosed herein to inhibit BRD4 activity was quantified and the respective IC50 value was determined.

Test [2] has as its system Raji, human Burkitts lymphoma cells. Kind of test: Cell-MTS cellular proliferation assay, Raji. The conditions noted are these: 168 hr incubation. The class given is cell-based. The method, then:
as §1, §2, §3

For test [3], the system named is HL-60, human proleukemia cells. Kind of test: Cell-MTS cellular proliferation assay, HL-60. It is filed as cell-based. To be noted: HL-60 cells, 168 hr incubation. The method, then: as §1, §2, §3

This note sets out measurements from patent publication US10807982B2, “Bromodomain inhibitors” (CELGENE QUANTICEL RESEARCH, INC., priority 2015, dated 2020).

A value given as a limit tells only on which side of the number the result lay.

For orientation: IC50 means the concentration that gives 50% inhibition. A lower IC50 goes with greater potency.

Turning to `CCS(=O)(=O)Nc1cc(-c2cc(C)c(=O)n(C)c2)c2oc(C3CC3)cc2c1`, the IC50 was 500 to 5000 nM in test [1] (Homo sapiens), ≤ 500 nM at BRD4(BD1), ≤ 500 nM in test [2] (Homo sapiens) and ≤ 500 nM in test [3] (Homo sapiens).

For `Cc1cc(-c2cc(S(C)(=O)=O)ccc2OCC2CC2)c2n(c1=O)CCC2F` (racemic) [Example 90, (±)-8-[2-(cyclopropylmethoxy)-5-methylsulfonylphenyl]-1-fluoro-6-methyl-2,3-dihydro-1H-indolizin-5-one], the 50% inhibitory concentration (IC50) at BRD4(BD1) is ≤ 500 nM.

With `CCc1cc2cc(S(C)(=O)=O)cc(-c3cn(C)c(=O)c4ccccc34)c2o1` [4-(2-ethyl-5-(methylsulfonyl)benzofuran-7-yl)-2-methylisoquinolin-1(2H)-one, reference compound], the IC50 in test [1] (Homo sapiens) is 500 to 5000 nM; at BRD4(BD1), ≤ 500 nM; in test [2] (Homo sapiens) it was ≤ 500 nM; in test [3] (Homo sapiens), ≤ 500 nM.

As to `CN1Cc2ccc(-c3cn(C)c(=O)c4ccccc34)cc2S1(=O)=O` [Example 1, 2-methyl-4-(2-methyl-1,1-dioxo-3H-1,2-benzthiazol-6-yl)isoquinolin-1-one], the IC50 (in test [1] (Homo sapiens); at BRD4(BD1); in test [2] (Homo sapiens); in test [3] (Homo sapiens)) was 500 to 5000 nM each time.

`Cn1cc(-c2ccc3c(c2)S(=O)(=O)NC3)c2ccccc2c1=O` [Example 2, 4-(1,1-dioxo-2,3-dihydro-1,2-benzothiazol-6-yl)-2-methylisoquinolin-1-one]: the IC50 in test [1] (Homo sapiens) is > 5000 nM; against BRD4(BD1), 500 to 5000 nM; in test [2] (Homo sapiens), > 5000 nM; in test [3] (Homo sapiens) it was 500 to 5000 nM.

For `COc1cc2c(cc1-c1cc(C)c(=O)n(C)c1)S(=O)(=O)N(C)C2` [Example 3, 5-(5-methoxy-2-methyl-1,1-dioxo-3H-1,2-benzothiazol-6-yl)-1,3-dimethylpyridin-2-one], the IC50 in test [1] (Homo sapiens) is > 5000 nM; on BRD4(BD1), ≤ 500 nM; in test [2] (Homo sapiens) it was > 5000 nM; in test [3] (Homo sapiens), 500 to 5000 nM.

As for `CN1Cc2cc(Oc3ccc(F)cc3F)c(-c3ccc(=O)n(C)c3)cc2S1(=O)=O` [Example 12, 5-[5-(2,4-difluorophenoxy)-2-methyl-1,1-dioxo-3H-1,2-benzothiazol-6-yl]-1-methylpyridin-2-one], on BRD4(BD1), the IC50 is ≤ 500 nM.

For the compound `CCc1cc2cc(S(C)(=O)=O)cc(-c3cc(C)c(=O)n(C)c3)c2o1` [Example 21, 5-(2-ethyl-5-methylsulfonyl-1-benzofuran-7-yl)-1,3-dimethylpyridin-2-one], the IC50 on BRD4(BD1) is ≤ 500 nM.

Turning to `Cc1cc(-c2nc(NS(C)(=O)=O)c3nc(C)n(Cc4ccc(F)cc4)c3n2)cn(C)c1=O` [Example 22, N-[2-(1,5-dimethyl-6-oxopyridin-3-yl)-9-[(4-fluorophenyl)methyl]-8-methylpurin-6-yl]methanesulfonamide], the IC50 on BRD4(BD1) is ≤ 500 nM.

For `Cc1cc(-c2cc(S(C)(=O)=O)cc3cc(-c4ccccc4)oc23)cn(C)c1=O` [Example 25, 1,3-dimethyl-5-(5-methylsulfonyl-2-phenyl-1-benzofuran-7-yl)pyridin-2-one], on BRD4(BD1), the IC50 is ≤ 500 nM.

Regarding `Cc1cc(-c2cc(NS(C)(=O)=O)c3nc(C)n([C@H](C)c4ccccc4)c3c2)cn(C)c1=O` [Example 45, N-[6-(1,5-dimethyl-6-oxopyridin-3-yl)-2-methyl-1-[(1R)-(1-phenylethyl)]benzimidazol-4-yl]methanesulfonamide], the IC50 is 500 to 5000 nM in test [1], ≤ 500 nM in test [2] and ≤ 500 nM in test [3].

As to `CCS(=O)(=O)Nc1cc(-c2cc(C)c(=O)n(C)c2)c2nc(C3CC3)n(C)c2c1` [Example 54, N-[2-cyclopropyl-7-(1,5-dimethyl-6-oxopyridin-3-yl)-3-methylbenzimidazol-5-yl]ethanesulfonamide], on BRD4(BD1), the concentration for half-maximal inhibition (IC50) is ≤ 500 nM.

For `CCS(=O)(=O)Nc1cc(-c2cn(C)c(=O)c3ccccc23)c2nc(C3CC3)n(C)c2c1` [Example 55, N-[2-cyclopropyl-3-methyl-7-(2-methyl-1-oxoisoquinolin-4-yl)benzimidazol-5-yl]ethanesulfonamide], at BRD4(BD1), the IC50 is ≤ 500 nM.

For `COc1cc(-c2cc(CS(C)(=O)=O)cc3nc(C4CC4)oc23)cn(C)c1=O` [Example 63, 5-[2-cyclopropyl-5-(methylsulfonylmethyl)-1,3-benzoxazol-7-yl]-3-methoxy-1-methylpyridin-2-one], the half-inhibitory concentration (IC50) against BRD4(BD1) is ≤ 500 nM.

Take `CCS(=O)(=O)c1cc(-c2cc(C)c(=O)n(C)c2)cc2c1nc(C)n2CC1CC1` [Example 69, 5-[3-(cyclopropylmethyl)-7-ethylsulfonyl-2-methylbenzimidazol-5-yl]-1,3-dimethylpyridin-2-one]: the half-inhibitory concentration (IC50) on BRD4(BD1) is ≤ 500 nM.

As to `CCS(=O)(=O)c1cc(-c2cc(OC)c(=O)n(C)c2)cc2c1nc(C)n2CC1CC1` [Example 70, 5-[3-(cyclopropylmethyl)-7-ethylsulfonyl-2-methylbenzimidazol-5-yl]-3-methoxy-1-methylpyridin-2-one], the half-maximal inhibitory concentration (IC50) at BRD4(BD1) is ≤ 500 nM.

Consider `CCc1nc2c(NS(C)(=O)=O)cc(-c3cc(C)c(=O)n(C)c3)cc2n1CC1CC1` [Example 74, N-[1-(cyclopropylmethyl)-6-(1,5-dimethyl-6-oxopyridin-3-yl)-2-ethylbenzimidazol-4-yl]methanesulfonamide], for which the IC50 against BRD4(BD1) is ≤ 500 nM.

Turning to `CCn1c(-c2cc(C)c(=O)n(C)c2)cc2c(S(C)(=O)=O)cccc21` [Example 75, 5-(1-ethyl-4-methylsulfonylindol-2-yl)-1,3-dimethylpyridin-2-one], at BRD4(BD1), the half-inhibitory concentration (IC50) is ≤ 500 nM.

Take `Cc1cc(-c2cc3c(S(C)(=O)=O)cccc3n2CC2CC2)cn(C)c1=O` [Example 76, 5-[1-(cyclopropylmethyl)-4-methylsulfonylindol-2-yl]-1,3-dimethylpyridin-2-one]: the IC50 against BRD4(BD1) is ≤ 500 nM.

Turning to `Cc1cc(-c2cc3c(S(C)(=O)=O)cccc3n2CCC2CC2)cn(C)c1=O` [Example 77, 5-[1-(2-cyclopropylethyl)-4-methylsulfonylindol-2-yl]-1,3-dimethylpyridin-2-one], the IC50 at BRD4(BD1) is ≤ 500 nM.

Turning to `Cn1cc(-c2cc3c(S(C)(=O)=O)cccc3n2CC2CC2)c2ccccc2c1=O` [Example 78, 4-[1-(cyclopropylmethyl)-4-methylsulfonylindol-2-yl]-2-methylisoquinolin-1-one], the IC50 against BRD4(BD1) was ≤ 500 nM.

With `Cc1cc(-c2nc(NS(C)(=O)=O)c3nc(C)n(CC4CC4)c3n2)cn(C)c1=O` [Example 81, N-[9-(cyclopropylmethyl)-2-(1,5-dimethyl-6-oxopyridin-3-yl)-8-methylpurin-6-yl]methanesulfonamide], the IC50 on BRD4(BD1) is ≤ 500 nM.

At BRD4(BD1), `Cc1cc(-c2cc(S(C)(=O)=O)ccc2OCC2CC2)c2n(c1=O)CCC2(F)F` [Example 89, 8-[2-(cyclopropylmethoxy)-5-methylsulfonylphenyl]-1,1-difluoro-6-methyl-2,3-dihydroindolizin-5-one] displayed an IC50 of 500 to 5000 nM.

Turning to `CCS(=O)(=O)Nc1cc(-c2cc(C)c(=O)n(C)c2)cc2c1nc(OC)n2CC1CC1` [Example 103, N-[1-(cyclopropylmethyl)-6-(1,5-dimethyl-6-oxopyridin-3-yl)-2-methoxybenzimidazol-4-yl]ethanesulfonamide], the IC50 against BRD4(BD1) is ≤ 500 nM.

In the case of `Cc1cc(-c2cc(NS(C)(=O)=O)c3c(F)nn(Cc4ccccc4)c3c2)cn(C)c1=O` [Example 104, N-[1-benzyl-6-(1,5-dimethyl-6-oxopyridin-3-yl)-3-fluoroindazol-4-yl]methanesulfonamide], the IC50 at BRD4(BD1) was ≤ 500 nM.

`CCS(=O)(=O)Nc1cc(-c2cc(C)c(=O)n(C)c2)cc2c1c(F)nn2Cc1ccc(F)cc1` [Example 105, N-[6-(1,5-dimethyl-6-oxopyridin-3-yl)-3-fluoro-1-[(4-fluorophenyl)methyl]indazol-4-yl]ethanesulfonamide]: the half-inhibitory concentration (IC50) at BRD4(BD1) was ≤ 500 nM.

As to `CCS(=O)(=O)Nc1cc(-c2cc(C)c(=O)n(C)c2)cc2c1c(F)nn2Cc1ccccc1` [Example 106, N-[1-benzyl-6-(1,5-dimethyl-6-oxopyridin-3-yl)-3-fluoroindazol-4-yl]ethanesulfonamide], at BRD4(BD1), the IC50 was ≤ 500 nM.
